# Results published in PMC10794144, “A novel antibiotic class targeting the lipopolysaccharide transporter” (Nature, 2024).
# Where two headings read alike, the source gives them in different places.
# Experiments:
# K. pneumoniae = assay: MIC versus efflux impaired strains; format: cell-based, Klebsiella pneumoniae
# Description: (§1) MIC determinations were performed using the broth microdilution method and in line with CLSI guidelines M07 and M100 (refs. [37],[38]). Bacterial inocula were prepared by diluting a 0.5 McFarland suspension in CAMHB or lysogeny broth (LB) specifically for A. baylyi isolates. […] MIC values of all of the tested antibiotics were read as the lowest compound concentration inhibiting bacterial growth by naked eye or beyond which the OD600 ceased to decrease.
# P. aeruginosa = assay: MIC versus efflux impaired and porin deficient strains; format: cell-based, Pseudomonas aeruginosa
# Description: as §1
# E. coli = assay: as above; format: cell-based; conditions: Escherichia coli
# Description: as §1
# A. baumannii ACC01073 [1] = assay: Time–kill kinetics; format: cell-based, Acinetobacter baumannii
# Description: Time–kill studies were performed according to the CLSI standard procedure M26-A[40]. […] A. baumannii colonies from agar plates were inoculated into CAMHB supplemented with 20% human serum and incubated overnight at 35 ± 2 °C in ambient air under shaking. The overnight culture was diluted 1:10,000 and further incubated for 2 h. A total of 5 ml of the bacterial log-phase suspension was transferred into six-well plates. […] The six-well plates were incubated at 35 ± 2 °C in ambient air under shaking (100 rpm) for 24 h, 150 μl was withdrawn at the selected timepoints (0, 2, 4, 8, 12, 16, 20 and 24 h), diluted, plated on a Mueller–Hinton agar plate and incubated overnight for CFU determination. GraphPad Prism v.8 was used for graphical presentation of the data.
# Aqueous solubility = format: physicochemical; conditions: pH 1–9
# [2] = Distribution coefficient logD7.4; format: physicochemical; conditions: pH 7.4
# A. baumannii ACC01073 [3] = assay: Neutropaenic mouse lung infection (pneumonia) model; format: in vivo; conditions: for CFU/lungs, average / Log CFU/lungs, average (bacterial load): n = 6
# Description: An intramuscular inoculation of a bacterial suspension of approximately 10^6 CFU per thigh was used to induce the infection. Treatment started 2 h after infection. […] Thigh bacterial burden was determined after 24 h of treatment. In the pneumonia model, an intratracheal inoculation of approximately 10^7 CFU per lung was used to induce the infection. Treatment started 2 h after infection. […] Lung bacterial burden was determined after 24 h treatment. Standard of care antibiotic was tested at a single dose in both infection models. GraphPad Prism 8 was used for graphical presentation and to analyse data.
# A. baylyi LptB2FGC = assay: LPS-release assay, proteoliposomes to LptA; format: biochemical, Acinetobacter baylyi
# Description: Proteoliposomes were prepared as described previously. Aqueous E. coli polar lipid extract (Avanti Polar Lipids) (30 mg ml^−1) and aqueous LPS from E. coli EH100 (Ra mutant; Sigma-Aldrich) (2 mg ml^−1) were sonicated briefly for homogenization. A mixture of 20 mM Tris-HCl (pH 8.0), 150 mM NaCl, 7.5 mg ml^−1 E. coli polar lipids, 0.5 mg ml^−1 LPS and 0.25% DDM was prepared and kept on ice for 10 min. Purified LptB2FGC was added to a final concentration of 0.86 μM, and the mixture was left on ice for 20 min. The mixture was diluted 100-fold with cold 20 mM Tris-HCl (pH 8.0) and 150 mM NaCl and kept on ice for 20 min. The proteoliposomes were pelleted (300,000g, 2 h, 4 °C), resuspended in 20 mM Tris-HCl (pH 8.0) and 150 mM NaCl, diluted 100× and centrifuged (300,000g, 2 h, 4 °C). The pellets were resuspended in a mixture of 20 mM Tris-HCl (pH 8.0), 150 mM NaCl and 10% glycerol (250 μl per 100 μl of the original predilution solution), homogenized by sonication, flash-frozen and stored at −80 °C until use.
# The levels of release of LPS from proteoliposomes to LptA were measured as previously described. Assays used 60% proteoliposomes (by volume) in a solution containing 50 mM Tris-HCl (pH 8.0), 500 mM NaCl, 10% glycerol and 2 µM LptA^I36pBPA. Reaction mixtures were incubated with drug for 10 min at room temperature, as applicable. […]
# [4] = system: A. baylyi ADP1 (ATCC 33305); assay: MIC of constructed lptF mutants in LB, OD600; format: cell-based, Acinetobacter baylyi
# Description: as §1
# Culture, genetic manipulation and MIC measurements of A. baylyi ADP1 were conducted according to previously reported procedures[56],[57].
compound,measurement,setting,value
CN1C(=O)[C@H](CCCCN)NC(=O)[C@H](CCCN)NCc2cccnc2Sc2c(Cl)ccc(Cl)c2CNC(=O)[C@@H]1Cc1c[nH]c2ccccc12 [RO7075573],MIC,"K. pneumoniae; K. pneumoniae 1161486a, efflux impaired, Δ acrAB",>64 mg/L
same,MIC,"K. pneumoniae; Klebsiella pneumoniae, K. pneumoniae 1161486, WT, read-out: MIC",> 64 mg/L
same,MIC,"P. aeruginosa; P. aeruginosa PAOD1, porin deficient, PAO1 Δ oprD",>64 µg/mL
same,MIC,"P. aeruginosa; Pseudomonas aeruginosa, P. aeruginosa PAO1, WT, read-out: MIC",> 64 µg/mL
same,MIC,"P. aeruginosa; Pseudomonas aeruginosa, P. aeruginosa PAO397, efflux impaired and porin deficient, read-out: MIC",64 µg/mL
same,MIC,"E. coli; E. coli 7623, WT, CAMHB, 100% inhibition, n = 1",> 64 µg/mL
same,MIC,"E. coli; E. coli 7623-, efflux impaired, Δ tolC",32 µg/mL
same,MIC,"E. coli; E. coli R1535, porin deficient, Δ (OmpC; OmpF)",> 64 µg/mL
CN1C(=O)[C@H](CCCCN)NC(=O)[C@H](CCCN)NCc2cccnc2Sc2cccc(-c3ccc(C(=O)O)cc3)c2CNC(=O)[C@@H]1Cc1c[nH]c2ccccc12 [zosurabalpin],Time–kill outcome,A. baumannii ACC01073 [1],bactericidal effect above 4× MIC
same,aqueous solubility,Aqueous solubility,> 100 mg/mL
same,logD7.4,[2],–2.46
same,ΔLog CFU/lungs vs A/0h,"A. baumannii ACC01073 [3]; 6 mg/kg/day s.c. q6h, 24 h",1.37
same,"CFU/lungs, average","A. baumannii ACC01073 [3]; 6 mg/kg/day s.c. q6h, 24 h",1.26E+09
same,"Log CFU/lungs, average (bacterial load)","A. baumannii ACC01073 [3]; 6 mg/kg/day s.c. q6h, 24 h",9.06
same,ΔLog CFU/lungs vs A/0h,A. baumannii ACC01073 [3]; 20 mg/kg/day q6h,1.47
same,"CFU/lungs, average",A. baumannii ACC01073 [3]; 20 mg/kg/day q6h,1.49E+09
same,"Log CFU/lungs, average (bacterial load)",A. baumannii ACC01073 [3]; 20 mg/kg/day q6h,9.16
same,ΔLog CFU/lungs vs A/0h,A. baumannii ACC01073 [3]; 60 mg/kg/day q6h,1.13
same,"CFU/lungs, average",A. baumannii ACC01073 [3]; 60 mg/kg/day q6h,8.46E+08
same,"Log CFU/lungs, average (bacterial load)",A. baumannii ACC01073 [3]; 60 mg/kg/day q6h,8.82
same,ΔLog CFU/lungs vs A/0h,A. baumannii ACC01073 [3]; 100 mg/kg/day q6h,-0.05
same,"CFU/lungs, average",A. baumannii ACC01073 [3]; 100 mg/kg/day q6h,1.38E+08
same,"Log CFU/lungs, average (bacterial load)",A. baumannii ACC01073 [3]; 100 mg/kg/day q6h,7.64
same,ΔLog CFU/lungs vs A/0h,A. baumannii ACC01073 [3]; 160 mg/kg/day q6h,-1.08
same,"CFU/lungs, average",A. baumannii ACC01073 [3]; 160 mg/kg/day q6h,9.40E+06
same,"Log CFU/lungs, average (bacterial load)",A. baumannii ACC01073 [3]; 160 mg/kg/day q6h,6.61
same,ΔLog CFU/lungs vs A/0h,A. baumannii ACC01073 [3]; 240 mg/kg/day q6h,-2.52
same,"CFU/lungs, average",A. baumannii ACC01073 [3]; 240 mg/kg/day q6h,4.14E+05
same,"Log CFU/lungs, average (bacterial load)",A. baumannii ACC01073 [3]; 240 mg/kg/day q6h,5.17
same,Reduction in CFUs in lungs,A. baumannii ACC01073 [3]; 360 mg per kg per day,> 5 log
same,ΔLog CFU/lungs vs A/0h,A. baumannii ACC01073 [3]; 360 mg/kg/day q6h,-4.81
same,"CFU/lungs, average",A. baumannii ACC01073 [3]; 360 mg/kg/day q6h,9.88E+02
same,"Log CFU/lungs, average (bacterial load)",A. baumannii ACC01073 [3]; 360 mg/kg/day q6h,2.88
same,LPS transport,A. baylyi LptB2FGC; complexes with LptF E249K or I317N,did not inhibit LPS transport
same,LPS extraction to LptA,"A. baylyi LptB2FGC; wild-type LptB2FGC proteoliposomes, biological triplicate",blocked LPS extraction at concentrations comparable to growth inhibitory concentrations
same,Fold MIC increase,[4]; constructed LptF (E249K&I317N),> 700
same,Fold MIC increase,[4]; constructed LptF E249K,242
same,Fold MIC increase,[4]; constructed LptF I317N,128
same,Fold MIC increase,[4]; constructed LptF K320T,20
same,Fold MIC increase,[4]; constructed LptF R322C,9
